# Source: publication PMC11623267, “Inhibitors of malaria parasite cyclic nucleotide phosphodiesterases block asexual blood-stage development and mosquito transmission” (Science Advances, 2024)
# Where two headings read alike, the source gives them in different places.
# Columns and labels:
# P. falciparum ABS = conditions: read-out: Median effective dose, P. falciparum ABS growth inhibition; cited from earlier work
# malaria parasites = test system: malaria parasites; design: method as in PMID 25951195, PMID 33262483; conditions: cited from earlier work
# [1] = test system: cGMP-PDE activity in gametocyte lysates (PDEα, PDEδ); test: cGMP hydrolysis SPA in stage IV/V gametocyte membrane lysates; format: biochemical, Plasmodium falciparum; conditions: gametocyte lysate; geometric mean ×/÷ geometric SD
# Method: cGMP signaling is known to play an essential role in gametogenesis in Plasmodium ([19], [20], [28]). We therefore tested the effects of all newly synthesized analogs for their ability to inhibit cGMP hydrolysis in crude gametocyte membrane preparations. […] S5A. These findings were also consistent with our enzyme-linked immunosorbent assay (ELISA)–based measurement of elevated cGMP levels in gametocytes following incubation with an example of each subseries (Fig. 2A). […] The levels of cAMP detected in gametocytes were similar in dimethyl sulfoxide (DMSO)–, XA-, and inhibitor-treated samples, and we could detect little or no cAMP hydrolysis in mature gametocytes (fig. S5B). […]
# (§1) The cyclic nucleotide hydrolytic activity of membrane-associated parasite PDE enzymes was measured by a scintillation proximity assay (SPA) ([18]) using lysates of mature P. falciparum schizonts or stage IV/V gametocytes. […] The IC50 values for the compounds were determined using threefold serial dilutions in duplicate. […] The reactions were terminated by addition of 25 μl of PDE SPA beads (PerkinElmer, RPNQ0150), and after 20 min of incubation at room temperature, scintillation was measured using a Wallac 1450 Microbeta Counter (PerkinElmer) for 30 s. […]
# P. falciparum Dd2-B2 = test: 72-hour flow cytometry EC50 assay, Dd2-B2 parental line; format: cell-based, Plasmodium falciparum; conditions: Plasmodium falciparum, DD2, read-out: EC50 Dd2-B2 parental line
# Method: (§2) Stocks of SAL-0010003 (5-benzyl), SAL-0010355 (5-aryl), and SAL-0010419 (2-alkyl) were made at 10 and 1 mM in DMSO. Aliquots in use were stored at −20°C, and long-term storage was at −80°C. All in vitro studies were done such that the final DMSO concentration was <0.5%. P. falciparum ABS parasites were cultured at 3% hematocrit in human O+ RBCs in RPMI 1640 medium, supplemented with 25 mM Hepes, 50 mg L-hypoxanthine, 2 mM L-glutamine, 0.225% sodium bicarbonate, 0.5% (w/v) AlbuMAX II (Invitrogen) and gentamycin (10 μg/ml), in modular incubator chambers (Billups-Rothenberg) at 5% O2, 5% CO2, and 90% N2 at 37°C. Dd2-B2 (obtained from T. Wellems, National Institute of Allergy and Infectious Diseases, National Institutes of Health) is a genetically homogenous line that was cloned from Dd2 by limiting dilution. To define the EC50 and EC90 values of ABS parasites, Dd2-B2 ring-stage cultures at 0.2% parasitemia and 1% hematocrit were exposed for 72 hours to a range of 10 drug concentrations that were twofold serially diluted in duplicates along with drug-free controls. Parasite survival was assessed by flow cytometry on an iQue flow cytometer (Sartorius) using SYBR Green and MitoTracker Deep Red FM (Life Technologies) as nuclear stain and vital dyes, respectively. After determination of the EC50 and EC90 values for the three compounds with the P. falciparum Dd2-B2 clone, one single-step selection was set up using 2 × 10^5 parasites in each well of a 96-well plate at a starting concentration of 3× EC90. Parasites were cleared from the culture rapidly, and cultures were screened three times weekly by flow cytometry and counted as positive for recrudescence when the overall parasitemia reached 0.3% and the parasites were visible on a blood smear. DNA was extracted from recrudescent lines using a QIAGEN QIAamp Blood Mini Kit, and libraries were prepared with the Illumina DNA Prep kit for whole-genome sequencing on the Illumina MiSeq using a V3 2 × 300–base pair flow cell.
# [2] = test system: P. falciparum Dd2-B2 lines selected under drug pressure; test: 72-hour flow cytometry EC50 assay, lines selected under drug pressure; format: cell-based, Plasmodium falciparum; conditions: for EC50: Plasmodium falciparum
# Method: Three examples of an additional compound series developed independently [NPD-2958, NPD-3518 ([31]), and NPD-3738; fig.
# as §2
# P. falciparum 3D7 = P. falciparum 3D7 LDH growth inhibition assay (asexual blood stage); format: cell-based, Plasmodium falciparum
# Method: P. falciparum isolates (3D7/Dd2) were obtained from BEI Resources and were cultured using standard procedures as described elsewhere ([47]). Briefly, P. falciparum was grown in RPMI 1640 medium (10.3 g/liter) supplemented with L-glutamine (2 mM), hypoxanthine (150 μM), Hepes (25 mM), D-glucose (12 mM), sodium bicarbonate (25.7 mM), AlbuMAX II (0.5% or 5 g/liter) (pH 7.4), and 2% RBC (type O+, freshly prepared). Cultures were replenished with fresh medium and RBCs every other day. For RBC preparation, whole blood was centrifuged at 415g at room temperature for 12 min. After that, the plasma and buffy coat were removed, and packed RBCs were washed three times with 3 vol of RPMI 1640. Last, RBCs were resuspended in 1:1 vol of complete RPMI 1640 medium (containing 0.5% AlbuMAX II).
# The P. falciparum 3D7 and Dd2 LDH growth inhibition assay was carried out as described elsewhere ([48]) with minor modification of the parasitological conditions (10 to 15% parasitemia with ≥80% rings). Data were normalized to percent growth inhibition with respect to […] (for 3D7, a mixture of 100 nM chloroquine and 100 nM atovaquone as 100% inhibition; for Dd2, a mixture of 200 nM DHA and 200 nM atovaquone as 100% inhibition) controls.
# PDEβ = biological target: T1, PDEβ (Plasmodium falciparum, UniProt Q8I6Z7); test: cAMP hydrolysis SPA in schizont membrane lysates; format: biochemical; conditions: read-out: IC50 against PDEβ
# T1 construct: endogenous in cells; host or cells: P. falciparum 3D7 schizonts, NP-40 membrane lysate
# Source text: We identified three PDE inhibitor chemical series generated by Pfizer, with structures in the public domain, which have activity against malaria parasites (see the “Chemistry strategy summary” section). These series were originally designed to inhibit human PDEs and were chosen as chemistry start points to optimize activity against malaria parasites. More than 400 new analogs were generated (full details of their properties will be reported in a separate paper, in preparation) through iterative rounds of synthesis and testing. The chemistry start points for each of the series were SAL-0010042 (5-benzyl), SAL-0010043 (5-aryl), and SAL-0010034 (2-alkyl) (see Materials and Methods and fig. S1A). S2. Analytical data for these compounds are provided in data S1. All newly synthesized compounds were tested for inhibition of native cAMP-PDE activity in mature schizont crude membrane preparations and inhibition of P. falciparum ABS growth. S3A. […] The unbound EC50 values for the compounds in the parasite growth inhibition assay were consistently calculated to be sevenfold higher than the IC50 values in the biochemical assay. Given that PDEβ is dual specific (i.e., can hydrolyze both cAMP and cGMP), we also determined IC50 values for cGMP hydrolysis. […] The IC50 values measured for cGMP hydrolysis in blood-stage schizonts were generally similar to those for cAMP hydrolysis (Table 1). […]
# as §1
# T1 sequence (Q8I6Z7 whole entry): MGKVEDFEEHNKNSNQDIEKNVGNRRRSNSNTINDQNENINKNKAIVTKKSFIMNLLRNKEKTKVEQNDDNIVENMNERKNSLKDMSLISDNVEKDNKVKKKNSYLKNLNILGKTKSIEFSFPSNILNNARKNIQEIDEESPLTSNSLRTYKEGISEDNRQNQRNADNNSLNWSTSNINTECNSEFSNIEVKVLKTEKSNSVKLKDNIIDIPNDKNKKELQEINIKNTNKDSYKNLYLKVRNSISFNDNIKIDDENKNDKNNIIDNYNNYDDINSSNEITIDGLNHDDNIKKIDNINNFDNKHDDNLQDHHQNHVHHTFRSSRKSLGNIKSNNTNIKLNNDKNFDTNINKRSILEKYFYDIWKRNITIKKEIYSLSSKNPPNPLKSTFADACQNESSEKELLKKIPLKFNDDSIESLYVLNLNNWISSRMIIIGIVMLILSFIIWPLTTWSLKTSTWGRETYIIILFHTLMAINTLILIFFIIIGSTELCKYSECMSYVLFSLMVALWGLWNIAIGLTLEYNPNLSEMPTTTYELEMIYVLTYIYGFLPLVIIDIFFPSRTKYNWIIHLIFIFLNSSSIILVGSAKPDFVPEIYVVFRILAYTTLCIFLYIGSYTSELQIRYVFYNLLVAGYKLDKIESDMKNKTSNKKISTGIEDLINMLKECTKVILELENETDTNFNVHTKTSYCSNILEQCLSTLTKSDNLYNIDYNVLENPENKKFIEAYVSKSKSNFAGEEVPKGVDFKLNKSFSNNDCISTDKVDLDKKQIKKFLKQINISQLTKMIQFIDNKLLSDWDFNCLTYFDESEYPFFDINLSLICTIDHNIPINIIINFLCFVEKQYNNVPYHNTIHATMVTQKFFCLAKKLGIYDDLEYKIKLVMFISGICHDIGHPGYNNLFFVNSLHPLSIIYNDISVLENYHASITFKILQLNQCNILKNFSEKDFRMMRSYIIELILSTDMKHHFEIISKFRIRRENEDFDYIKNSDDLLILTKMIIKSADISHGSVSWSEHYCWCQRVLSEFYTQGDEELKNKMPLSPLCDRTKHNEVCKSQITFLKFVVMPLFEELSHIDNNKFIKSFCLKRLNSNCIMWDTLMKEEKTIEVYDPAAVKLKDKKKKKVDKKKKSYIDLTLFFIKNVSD
structure (smiles),measurement,setting,value
CCCOc1ccccc1-c1nc2nn[nH]c2c(=O)[nH]1 [zaprinast],EC50,P. falciparum ABS,35 µM
CN1CC(=O)N2[C@H](c3ccc4c(c3)OCO4)c3[nH]c4ccccc4c3C[C@@H]2C1=O [tadalafil],IC50 against malaria parasites,malaria parasites,mid-to-high micromolar range
CCc1c2nc(-c3cc(-c4cccnc4)cnc3OCC(C)C)[nH]c(=O)c2nn1CCOC [SAL-0010419],IC50,[1],> 10 µM
same,EC50,P. falciparum Dd2-B2,0.0614 µM
same,EC50,"[2]; DD2, read-out: EC50, line selected with SAL-0010419, Well C4",0.359 µM
same,EC50,"[2]; DD2, read-out: EC50, line selected with SAL-0010419, Well E11",0.344 µM
same,EC50,"[2]; DD2, read-out: EC50, line selected with SAL-0010419, Well F8",0.293 µM
same,Mean fold change in EC50,"[2]; selected lines vs Dd2-B2 parental line, ±SD",5.4 ± 0.6 fold
same,"EC50 shift, line selected with SAL-0010419, Well C4",[2]; vs Dd2-B2,5.9 fold
same,"EC50 shift, line selected with SAL-0010419, Well E11",[2]; vs Dd2-B2,5.6 fold
same,"EC50 shift, line selected with SAL-0010419, Well F8",[2]; vs Dd2-B2,4.8 fold
"CCCc1n[nH]c2c(=O)[nH]c(-c3cc(S(=O)(=O)N4CCN(C)CC4)ccc3OCC)nc12 [des-Me sildenafil, desmethyl (des-Me) sildenafil]",EC50,"P. falciparum 3D7; Plasmodium falciparum, 3D7, read-out: EC50 against ABS parasites",0.415 µM
same,Difference in ABS EC50 vs sildenafil,P. falciparum 3D7; des-Me sildenafil vs sildenafil,> 60 fold
same,IC50,PDEβ,0.0367 µM
